Measured values taken from PubChem BioAssay AID248 (DTP/NCI, 2004).
Values joined by “and” are separate entries in the source; they are usually repeats but may differ in a detail not shown here. Identical values can stand only once. Toxic doses and inconclusive results are not listed.

System: L1210 leukemia ip in BDF1 mice, survival T/C
Assay: NCI In Vivo Anticancer Drug Screen. Data for tumor model L1210 Leukemia (intraperitoneal) in B6D2F1 (BDF1) mice
Conditions: endpoint: mean survival time, higher = longer survival
Method in brief: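 Value reflects the ratio of survival in compound-treated mice to survival in vehicle-treated controls, with both groups carrying the same transplanted tumor.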

[1] = dose: 100.0 mg/kg/injection, schedule: Q01DX001 (ip), vehicle: carboxymethylcellulose (CMC)
[2] = dose: 200.0 mg/kg/injection, schedule: Q01DX001 (ip), vehicle: carboxymethylcellulose (CMC)
[3] = dose: 400.0 mg/kg/injection, schedule: Q01DX001 (ip), vehicle: carboxymethylcellulose (CMC)
[4] = dose: 100.0 mg/kg/injection, schedule: Q01DX009 (ip), vehicle: Klucel (hydroxypropylcellulose) (HPC)
[5] = dose: 100.0 mg/kg/injection, schedule: Q04DX003 (ip), vehicle: Klucel (hydroxypropylcellulose) (HPC)
[6] = dose: 200.0 mg/kg/injection, schedule: Q01DX009 (ip), vehicle: Klucel (hydroxypropylcellulose) (HPC)
[7] = dose: 200.0 mg/kg/injection, schedule: Q04DX003 (ip), vehicle: Klucel (hydroxypropylcellulose) (HPC)
[8] = dose: 400.0 mg/kg/injection, schedule: Q01DX009 (ip), vehicle: Klucel (hydroxypropylcellulose) (HPC)
[9] = dose: 400.0 mg/kg/injection, schedule: Q04DX003 (ip), vehicle: Klucel (hydroxypropylcellulose) (HPC)
[10] = dose: 100.0 mg/kg/injection, schedule: Q01DX001 (ip), vehicle: saline
[11] = dose: 200.0 mg/kg/injection, schedule: Q01DX001 (ip), vehicle: saline
[12] = dose: 400.0 mg/kg/injection, schedule: Q01DX001 (ip), vehicle: saline
[13] = dose: 25.0 mg/kg/injection, schedule: Q01DX009 (ip), vehicle: saline
[14] = dose: 100.0 mg/kg/injection, schedule: Q01DX001 (ip), vehicle: Klucel (hydroxypropylcellulose) (HPC)
[15] = dose: 12.5 mg/kg/injection, schedule: Q04DX002 (ip), vehicle: saline
[16] = dose: 25.0 mg/kg/injection, schedule: Q04DX002 (ip), vehicle: saline
[17] = dose: 50.0 mg/kg/injection, schedule: Q04DX002 (ip), vehicle: saline
[18] = dose: 100.0 mg/kg/injection, schedule: Q01DX009 (ip), vehicle: saline
[19] = dose: 100.0 mg/kg/injection, schedule: Q04DX003 (ip), vehicle: saline
[20] = dose: 200.0 mg/kg/injection, schedule: Q01DX009 (ip), vehicle: saline
[21] = dose: 200.0 mg/kg/injection, schedule: Q04DX003 (ip), vehicle: saline
[22] = dose: 400.0 mg/kg/injection, schedule: Q01DX009 (ip), vehicle: saline
[23] = dose: 400.0 mg/kg/injection, schedule: Q04DX003 (ip), vehicle: saline
[24] = dose: 50.0 mg/kg/injection, schedule: Q04DX002 (ip), vehicle: Klucel (hydroxypropylcellulose) (HPC)
[25] = dose: 100.0 mg/kg/injection, schedule: Q04DX002 (ip), vehicle: Klucel (hydroxypropylcellulose) (HPC)
[26] = dose: 50.0 mg/kg/injection, schedule: Q01DX001 (ip), vehicle: saline
[27] = dose: 200.0 mg/kg/injection, schedule: Q04DX002 (ip), vehicle: Klucel (hydroxypropylcellulose) (HPC)
[28] = dose: 400.0 mg/kg/injection, schedule: Q04DX002 (ip), vehicle: Klucel (hydroxypropylcellulose) (HPC)
[29] = dose: 100.0 mg/kg/injection, schedule: Q04DX003 (ip), vehicle: saline with Tween-80
[30] = dose: 200.0 mg/kg/injection, schedule: Q04DX003 (ip), vehicle: saline with Tween-80
[31] = dose: 400.0 mg/kg/injection, schedule: Q04DX003 (ip), vehicle: saline with Tween-80

Nc1ccc(S(=O)(=O)c2cc(O)ccc2O)cc1
T/C [1]: 101 % of control | T/C [2]: 100 % of control | T/C [3]: 97 % of control

CCCC1(C(=O)OCC)CCCC1=O (stereo not given)
T/C [1]: 95 % of control | T/C [2]: 90 % of control | T/C [3]: 92 % of control

COc1ccc(C)cc1NC(=S)NC(=O)c1cc([N+](=O)[O-])cc([N+](=O)[O-])c1
T/C [4]: 97 % of control | T/C [5]: 95 % of control | T/C [6]: 90 % of control | T/C [7]: 100 % of control | T/C [8]: 95 % of control | T/C [9]: 97 % of control

C1CCCC(NNC2CCCCCCC2)CCC1
T/C [10]: 94 % of control

CCOC(=O)/C(C#N)=C1\C=C(NCc2ccccc2)CCC1
T/C [10]: 89 % of control | T/C [11]: 96 % of control | T/C [12]: 92 % of control

NC(CSC(c1ccccc1)(c1ccccc1)c1ccc(Br)cc1)C(=O)O (stereo not given)
T/C (dose: 3.13 mg/kg/injection, schedule: Q01DX009 (ip), vehicle: saline): 155 % of control | T/C (dose: 6.25 mg/kg/injection, schedule: Q01DX009 (ip), vehicle: saline): 162 % of control | T/C (dose: 12.5 mg/kg/injection, schedule: Q01DX009 (ip), vehicle: saline): 214 % of control | T/C [13]: 111 % of control | T/C (dose: 75.0 mg/kg/injection, schedule: Q01DX001 (ip), vehicle: other): 105 % of control | T/C (dose: 150.0 mg/kg/injection, schedule: Q01DX001 (ip), vehicle: other): 121 % of control

N#Cc1c(F)c(F)c(Oc2c(F)c(F)c(F)c(Oc3c(F)c(F)c(C#N)c(F)c3F)c2F)c(F)c1F
T/C (dose: 100.0 mg/kg/injection, schedule: Q01DX009 (ip), vehicle: other): 103 % of control | T/C (dose: 100.0 mg/kg/injection, schedule: Q04DX003 (ip), vehicle: other): 100 % of control | T/C (dose: 200.0 mg/kg/injection, schedule: Q01DX009 (ip), vehicle: other): 100 % of control | T/C (dose: 200.0 mg/kg/injection, schedule: Q04DX003 (ip), vehicle: other): 97 % of control and 100 % of control | T/C (dose: 400.0 mg/kg/injection, schedule: Q04DX003 (ip), vehicle: other): 86 % of control

CC1(C)N=C(N)N=C(N)N1c1cccc(OCCOc2cccc(N)c2)c1
T/C (dose: 5.0 mg/kg/injection, schedule: Q01DX001 (ip), vehicle: saline): 91 % of control | T/C (dose: 10.0 mg/kg/injection, schedule: Q01DX001 (ip), vehicle: saline): 92 % of control | T/C (dose: 20.0 mg/kg/injection, schedule: Q01DX001 (ip), vehicle: saline): 94 % of control | T/C (dose: 40.0 mg/kg/injection, schedule: Q01DX001 (ip), vehicle: saline): 89 % of control | T/C [14]: 106 % of control

CCOC=Nc1c(C)c[n+]([O-])nc1OC
T/C [15]: 102 % of control | T/C [16]: 102 % of control | T/C [17]: 98 % of control

Nc1ccccc1CCCC(=O)O
T/C [18]: 95 % of control | T/C [19]: 104 % of control | T/C [20]: 90 % of control | T/C [21]: 98 % of control | T/C [22]: 105 % of control | T/C [23]: 93 % of control

Nc1ncnc2c1c(C1=NCCN1)cn2C1OC(CO)C(O)C1O (stereo not given)
T/C [13]: 179 % of control | T/C (dose: 50.0 mg/kg/injection, schedule: Q01DX009 (ip), vehicle: saline): 155 % of control and 230 % of control | T/C (dose: 200.0 mg/kg/injection, schedule: Q01DX005 (ip), vehicle: saline): 105 % of control

C[CH2][Sn]([CH2]C)([CH2]C)[NH]S(=O)(=O)c1ccc(C)cc1
T/C (dose: 3.12 mg/kg/injection, schedule: Q01DX009 (ip), vehicle: saline with Tween-80): 92 % of control | T/C (dose: 12.5 mg/kg/injection, schedule: Q04DX003 (ip), vehicle: saline): 106 % of control

O=C(C1C(c2ccccc2)C1c1ccccc1)N(CCCl)Cc1ccccc1 (stereo not given)
T/C (dose: 25.0 mg/kg/injection, schedule: Q04DX002 (ip), vehicle: Klucel (hydroxypropylcellulose) (HPC)): 97 % of control | T/C [24]: 87 % of control | T/C [25]: 100 % of control

COC1OC2COC(c3ccccc3)OC2C(N=[N+]=[N-])C1O (stereo not given)
T/C (dose: 100.0 mg/kg/injection, schedule: Q01DX001 (ip), vehicle: gum acacia): 100 % of control | T/C (dose: 200.0 mg/kg/injection, schedule: Q01DX001 (ip), vehicle: gum acacia): 97 % of control | T/C (dose: 400.0 mg/kg/injection, schedule: Q01DX001 (ip), vehicle: gum acacia): 92 % of control

C=CCCC1(CC=C)C(=O)NC(=O)NC1=O
T/C (dose: 75.0 mg/kg/injection, schedule: Q01DX001 (ip), vehicle: saline): 100 % of control | T/C (dose: 150.0 mg/kg/injection, schedule: Q01DX001 (ip), vehicle: saline): 104 % of control

CCN(CC)C(C)(C)CCl
T/C [10]: 104 % of control

COC(=O)NC1c2ccccc2CCC1I (stereo not given)
T/C (dose: 50.0 mg/kg/injection, schedule: Q01DX009 (ip), vehicle: saline with Tween-80): 94 % of control | T/C (dose: 100.0 mg/kg/injection, schedule: Q01DX009 (ip), vehicle: saline with Tween-80): 90 % of control | T/C (dose: 200.0 mg/kg/injection, schedule: Q01DX009 (ip), vehicle: saline with Tween-80): 92 % of control

CCOC(=O)C1CCCN(S(=O)(=O)c2ccc(C)cc2)c2ccccc2C1=O (stereo not given)
T/C [5]: 93 % of control | T/C [7]: 102 % of control | T/C [9]: 94 % of control

CC(C)(CC(=O)NNc1ccccc1)C(=O)O
T/C [26]: 97 % of control | T/C [10]: 102 % of control | T/C [11]: 100 % of control | T/C [12]: 102 % of control

CC(=O)NCCOc1ccc(N)cc1
T/C [19]: 104 % of control | T/C [21]: 98 % of control | T/C [23]: 98 % of control

CCn1[nH]cc2c3nnc(-c4ccccc4)c3cnc21
T/C [25]: 98 % of control | T/C [27]: 92 % of control | T/C [28]: 95 % of control

O=CC(OC(=O)c1ccccc1)C(OC(=O)c1ccccc1)C(CO)OC(=O)c1ccccc1 (stereo not given)
T/C [14]: 106 % of control | T/C (dose: 200.0 mg/kg/injection, schedule: Q01DX001 (ip), vehicle: Klucel (hydroxypropylcellulose) (HPC)): 95 % of control | T/C (dose: 400.0 mg/kg/injection, schedule: Q01DX001 (ip), vehicle: Klucel (hydroxypropylcellulose) (HPC)): 98 % of control

Cc1cccc(NC(=O)CCCCCCCCC(=O)Nc2cccc(C)c2C)c1C
T/C [4]: 92 % of control | T/C [6]: 102 % of control | T/C [8]: 98 % of control

CC1(C)OC2OC(C(O)CO)C(O)C2O1 (stereo not given) (tested in a mixture with another compound)
T/C [15]: 100 % of control | T/C [16]: 95 % of control | T/C [17]: 95 % of control

CCOC(=O)c1ccc(N2C(=O)c3cccc4cccc(c34)C2=O)c([N+](=O)[O-])c1
T/C [29]: 97 % of control | T/C [30]: 93 % of control | T/C [31]: 95 % of control

CCC(C)(C)C(=O)OCc1ccccc1
T/C [24]: 105 % of control | T/C [25]: 94 % of control | T/C [27]: 94 % of control and 111 % of control | T/C [28]: 103 % of control

CC1(C)CCC(C)(C)c2cc(Br)ccc21
T/C [1]: 103 % of control | T/C [2]: 95 % of control | T/C [3]: 95 % of control

O=C(CCCC(=O)NNC(=O)Nc1cccc(Cl)c1)NNC(=O)Nc1cccc(Cl)c1
T/C [26]: 96 % of control | T/C [10]: 106 % of control | T/C [11]: 106 % of control | T/C [12]: 93 % of control

Cc1ccccc1Nc1c(C)cccc1C(=O)O
T/C [18]: 100 % of control | T/C [20]: 92 % of control | T/C [22]: 86 % of control

O=[N+]([O-])c1ccc(OCc2ccccc2)cc1
T/C [29]: 96 % of control | T/C [30]: 92 % of control | T/C [31]: 94 % of control
